pIC50: −log10 of the molar value. Strand notation (5' to 3'): a small letter for the sugar, then the base; units joined by * are phosphorothioate-linked, units joined directly phosphodiester-linked; [ ] holds rarer units or linkages, { } end groups; capitals alone tell only the bases. [ms] = mesyl phosphoramidate linkage; e = 2'-O-(2-methoxyethyl) (MOE); k = constrained ethyl (cEt); [5mC] = 5-methylcytosine; d = 2'-deoxy (DNA)
Assays:
human APOE RNA [1] = assay: Activity in APOE 1549 knock-in mice, single ICV bolus, 2 weeks (Example 7); assay type: in vivo; details: single ICV bolus of 300 μg, two weeks post treatment
Procedure: Modified oligonucleotides described above were tested in APOE knock-in mice.
APOE knock-in mice (model 41549) were obtained from Taconic Biosciences. APOE knock-in mice were divided into groups of 2 mice each. Each mouse received a single intracerebroventricular (ICV) bolus of 300 μg of modified oligonucleotide. A group of 4 mice received a single ICV bolus with PBS as a negative control.
Two weeks post treatment, mice were sacrificed and RNA was extracted from cortical brain tissue and spinal cord for quantitative real-time RT-PCR analysis of RNA expression of APOE using primer probe set RTS3073 (described herein above). APOE RNA levels were normalized to mouse Ppia. Mouse Ppia was amplified using primer probe set m_cyclo24 (forward sequence TCGCCGCTTGCTGCA, designated herein as SEQ ID NO: 16; reverse sequence ATCGGCCGTGATGTCGA, designated herein as SEQ ID NO: 17; probe sequence […], designated herein as SEQ ID NO: 18). Results are presented as percent human APOE RNA relative to the amount of human APOE RNA in PBS treated animals, (% control). Each experiment is identified in separate tables below.

human APOE RNA [2] = assay: Dose-dependent inhibition of human APOE RNA in HepG2 cells, electroporation, 24 hours (Example 6); assay type: cell-based
Outline: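 IC50 derived from APOE RNA levels, given as percent of untreated control after GAPDH normalization (probe sets RTS3073 and RTS104). Oligonucleotides were delivered at multiple concentrations by electroporation into HepG2 cells seeded at 50,000 per well.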

human APOE RNA [3] = assay: Activity in APOE C57BL/6NTac-Apoeem7250 knock-in mice, single ICV bolus, 8 weeks (Example 11); assay type: in vivo; details: single ICV bolus 300 μg, 8 weeks post treatment, normalized to mouse Ppia
Outline: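 Cortical and spinal cord human APOE RNA quantified by RT-qPCR 8 weeks after a single 300 μg ICV dose in knock-in mice, Ppia-normalized. Values are percent of levels in PBS-treated animals.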

human APOE RNA [4] = assay: Activity in APOE C57BL/6NTac-Apoeem7250 knock-in mice, single ICV bolus, 16 weeks (Example 12); assay type: in vivo; details: single ICV bolus 300 μg, 16 weeks post treatment, normalized to mouse Ppia
Outline: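 A single 300 μg intracerebroventricular dose was given, with PBS-treated mice as reference; cortical and spinal cord tissue was taken 16 weeks later. RT-qPCR quantified human APOE RNA, Ppia-normalized, expressed relative to PBS animals (% control).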

human APOE RNA [5] = assay: Duration of action study in APOE C57BL/6NTac-Apoeem7250 knock-in mice (Example 16); assay type: in vivo; details: 300 μg ICV
Outline: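 Knock-in mice (2-4 per group) received a single ICV bolus of 300 μg oligonucleotide or PBS. At various timepoints, cortex and spinal cord human APOE RNA was measured by RT-qPCR (RTS3073), normalized to mouse Ppia and expressed as % of PBS control.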

human APOE RNA [6] = assay: Activity in APOE 1549 knock-in mice, single ICV bolus, 4 weeks (Example 8); assay type: in vivo; details: n = 2, single ICV bolus of 300 μg, four weeks post treatment, Table 18
Procedure: Modified oligonucleotides described above were tested in the 1549 APOE knock-in mouse model described above.
APOE knock-in mice were divided into groups of either 2 or 6 mice each as described in the tables below. Each mouse received a single intracerebroventricular (ICV) bolus of 300 μg of modified oligonucleotide. A group of either 3 or 6 mice received a single ICV bolus with PBS as a negative control.
(§1) Four weeks post treatment, mice were sacrificed and RNA was extracted from cortical brain tissue and spinal cord for quantitative real-time RT-PCR analysis of RNA expression of APOE using primer probe set RTS3073 (described herein above). APOE RNA levels were normalized to mouse Ppia. Mouse Ppia was amplified using primer probe set m_cyclo24 (described herein above). Results are presented as percent human APOE RNA relative to the amount of human APOE RNA in PBS treated animals, (% control). Each experiment is identified in separate tables below.

human APOE RNA [7] = assay: Duration of action study in APOE C57BL/6NTac-Apoeem7250 knock-in mice (Example 18); assay type: in vivo; details: 300 μg ICV
Procedure: Modified oligonucleotides described above were tested in the APOE C57BL/6NTac-Apoeem7250 knock-in model (described above).
Each mouse received a single intracerebroventricular (ICV) bolus of 300 μg of modified oligonucleotide. A group of 4-6 mice received a single ICV bolus with PBS as a negative control.
as §1, with “Mice” for “Four weeks post treatment, mice”, “sacrificed at various timepoints as indicated in the table below” for “sacrificed”

1601956: 6-10-4 MOE gapmer AAGTTCTCCAATCGACGGCT, linkages sooooossssssssssoss (antisense eA*eAeGeTeTe[5mC]dT*d[5mC]*d[5mC]*dA*dA*dT*d[5mC]*dG*dA*d[5mC]*eGeG*e[5mC]*eT) [compound 1601956]
APOE RNA (% control) Cortex (human APOE RNA [1]; Table 16): 104 % control
APOE RNA (% control) Spinal Cord (human APOE RNA [1]; Table 16): 107 % control

1601957: 6-10-4 MOE gapmer TCCTCATTTTAAAGTTCTCC, linkages sooooossssssssssoss (antisense eT*e[5mC]e[5mC]eTe[5mC]eAdT*dT*dT*dT*dA*dA*dA*dG*dT*dT*e[5mC]eT*e[5mC]*e[5mC]) [compound 1601957]
APOE RNA (% control) Cortex (human APOE RNA [1]; Table 16): 101 % control
APOE RNA (% control) Spinal Cord (human APOE RNA [1]; Table 16): 90 % control

1601958: 6-10-4 MOE gapmer CTTCACATTCTAAGCTCCAA, linkages sooooossssssssssoss (antisense e[5mC]*eTeTe[5mC]eAe[5mC]dA*dT*dT*d[5mC]*dT*dA*dA*dG*d[5mC]*dT*e[5mC]e[5mC]*eA*eA) [compound 1601958]
APOE RNA (% control) Cortex (human APOE RNA [1]; Table 16): 109 % control
APOE RNA (% control) Spinal Cord (human APOE RNA [1]; Table 16): 102 % control

1601959: 6-10-4 MOE gapmer CCGTGTCGCTGCCCCTGGCT, linkages sooooossssssssssoss (antisense e[5mC]*e[5mC]eGeTeGeTd[5mC]*dG*d[5mC]*dT*dG*d[5mC]*d[5mC]*d[5mC]*d[5mC]*dT*eGeG*e[5mC]*eT) [compound 1601959]
APOE RNA (% control) Cortex (human APOE RNA [1]; Table 16): 107 % control
APOE RNA (% control) Spinal Cord (human APOE RNA [1]; Table 16): 85 % control

1652902: 6-10-4 MOE gapmer CTTGGTGAATCTTTATTAAA, linkages sooooossssssssssoss (antisense e[5mC]*eTeTeGeGeTdG*dA*dA*dT*d[5mC]*dT*dT*dT*dA*dT*eTeA*eA*eA) [compound 1652902]
pIC50 (human APOE RNA [2]): 7.15
APOE RNA (% UTC) (human APOE RNA [2]; 5 nM): 88 % UTC
APOE RNA (% UTC) (human APOE RNA [2]; 13 nM): 94 % UTC
APOE RNA (% UTC) (human APOE RNA [2]; 33 nM): 54 % UTC
APOE RNA (% UTC) (human APOE RNA [2]; 82 nM): 44 % UTC
APOE RNA (% UTC) (human APOE RNA [2]; 205 nM): 26 % UTC
APOE RNA (% UTC) (human APOE RNA [2]; 512 nM): 19 % UTC
APOE RNA (% UTC) (human APOE RNA [2]; 1,280 nM): 10 % UTC
APOE RNA (% UTC) (human APOE RNA [2]; 3,200 nM): 4 % UTC
APOE RNA (% UTC) (human APOE RNA [2]; 8,000 nM): 3 % UTC
APOE RNA (% UTC) (human APOE RNA [2]; 20,000 nM): 2 % UTC
APOE RNA (% control) Cortex (human APOE RNA [1]; Table 17): 31 % control
APOE RNA (% control) Spinal Cord (human APOE RNA [1]; Table 17): 171 % control
APOE RNA (% control) Cortex (human APOE RNA [3]): 44 % control
APOE RNA (% control) Spinal Cord (human APOE RNA [3]): 12 % control
APOE RNA (% control) Cortex (human APOE RNA [4]; cortex): 105 % control
APOE RNA (% control) Spinal Cord (human APOE RNA [4]; spinal cord): 60 % control
APOE RNA (% control) Cortex (human APOE RNA [5]; 14 days post-dose): 43 % control
APOE RNA (% control) Cortex (human APOE RNA [5]; 112 days post-dose): 75 % control
APOE RNA (% control) Spinal Cord (human APOE RNA [5]; 14 days post-dose): 27 % control
APOE RNA (% control) Spinal Cord (human APOE RNA [5]; 112 days post-dose): 32 % control

1736521: 6-10-4 MOE gapmer CTTGGTGAATCTTTATTAAA, linkages sosssszzzsssssssoss (e[5mC]*eTeT*eG*eG*eT*dG[ms]dA[ms]dA[ms]dT*d[5mC]*dT*dT*dT*dA*dT*eTeA*eA*eA) [compound 1736521]
pIC50 (human APOE RNA [2]): 6.40
APOE RNA (% UTC) (human APOE RNA [2]; 5 nM): 99 % UTC
APOE RNA (% UTC) (human APOE RNA [2]; 13 nM): 109 % UTC
APOE RNA (% UTC) (human APOE RNA [2]; 33 nM): 84 % UTC
APOE RNA (% UTC) (human APOE RNA [2]; 82 nM): 69 % UTC
APOE RNA (% UTC) (human APOE RNA [2]; 205 nM): 65 % UTC
APOE RNA (% UTC) (human APOE RNA [2]; 512 nM): 40 % UTC
APOE RNA (% UTC) (human APOE RNA [2]; 1,280 nM): 34 % UTC
APOE RNA (% UTC) (human APOE RNA [2]; 3,200 nM): 18 % UTC
APOE RNA (% UTC) (human APOE RNA [2]; 8,000 nM): 10 % UTC
APOE RNA (% UTC) (human APOE RNA [2]; 20,000 nM): 3 % UTC
APOE RNA (% control) Cortex (human APOE RNA [6]; cortex): 52 % control
APOE RNA (% control) Spinal Cord (human APOE RNA [6]; spinal cord): 50 % control

1810064: mixed MOE/cEt gapmer CTTGGTGAATCTTTATTAAAC, sugar eeeeekddddddddddeeeee, linkages ssoooszzzssssszsooss (e[5mC]*eT*eTeGeGkT*dG[ms]dA[ms]dA[ms]dT*d[5mC]*dT*dT*dT*dA[ms]dT*eTeAeA*eA*e[5mC]) [compound 1810064]
APOE RNA (% control) Cortex (human APOE RNA [3]): 23 % control
APOE RNA (% control) Spinal Cord (human APOE RNA [3]): 15 % control
APOE RNA (% control) Cortex (human APOE RNA [7]; 28 days post-dose): 40 % control
APOE RNA (% control) Cortex (human APOE RNA [7]; 112 days post-dose): 62 % control
APOE RNA (% control) Cortex (human APOE RNA [7]; 140 days post-dose): 63 % control
APOE RNA (% control) Spinal Cord (human APOE RNA [7]; 28 days post-dose): 22 % control
APOE RNA (% control) Spinal Cord (human APOE RNA [7]; 112 days post-dose): 31 % control
APOE RNA (% control) Spinal Cord (human APOE RNA [7]; 140 days post-dose): 48 % control

From US20250353873A1, “COMPOUNDS AND METHODS FOR MODULATING APOE EXPRESSION” (Ionis Pharmaceuticals, Inc., priority 2024, published 2025)
